Measurements: paper PMC9516332 (Frontiers in Oncology, 2022)
Like-named read-outs stand apart in the source and are kept apart here.

Legend:
Assay in all cases: Kinase panel profiling at 1 µmol/L (MSA or IMAP), percentage inhibition
Format in all cases: biochemical
[1] = target: T1, panel of 255 wild-type kinases (Homo sapiens, UniProt P51817); details: read-out: %-inhibition at 1 µmol/L, PRKX
T1 sequence (P51817 1-358): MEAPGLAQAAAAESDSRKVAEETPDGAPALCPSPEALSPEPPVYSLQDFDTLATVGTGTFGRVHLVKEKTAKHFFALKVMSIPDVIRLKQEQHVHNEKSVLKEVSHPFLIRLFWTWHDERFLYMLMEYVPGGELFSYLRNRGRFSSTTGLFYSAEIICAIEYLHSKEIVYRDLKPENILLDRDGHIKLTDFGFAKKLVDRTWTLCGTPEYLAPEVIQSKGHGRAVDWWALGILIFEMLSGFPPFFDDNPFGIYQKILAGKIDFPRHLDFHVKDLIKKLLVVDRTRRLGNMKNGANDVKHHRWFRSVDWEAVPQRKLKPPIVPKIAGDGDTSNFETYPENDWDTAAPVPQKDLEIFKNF

[2] = target: T2, panel of 255 wild-type kinases (Homo sapiens, UniProt P51813); details: read-out: %-inhibition BMX
T2 sequence (P51813 1-675): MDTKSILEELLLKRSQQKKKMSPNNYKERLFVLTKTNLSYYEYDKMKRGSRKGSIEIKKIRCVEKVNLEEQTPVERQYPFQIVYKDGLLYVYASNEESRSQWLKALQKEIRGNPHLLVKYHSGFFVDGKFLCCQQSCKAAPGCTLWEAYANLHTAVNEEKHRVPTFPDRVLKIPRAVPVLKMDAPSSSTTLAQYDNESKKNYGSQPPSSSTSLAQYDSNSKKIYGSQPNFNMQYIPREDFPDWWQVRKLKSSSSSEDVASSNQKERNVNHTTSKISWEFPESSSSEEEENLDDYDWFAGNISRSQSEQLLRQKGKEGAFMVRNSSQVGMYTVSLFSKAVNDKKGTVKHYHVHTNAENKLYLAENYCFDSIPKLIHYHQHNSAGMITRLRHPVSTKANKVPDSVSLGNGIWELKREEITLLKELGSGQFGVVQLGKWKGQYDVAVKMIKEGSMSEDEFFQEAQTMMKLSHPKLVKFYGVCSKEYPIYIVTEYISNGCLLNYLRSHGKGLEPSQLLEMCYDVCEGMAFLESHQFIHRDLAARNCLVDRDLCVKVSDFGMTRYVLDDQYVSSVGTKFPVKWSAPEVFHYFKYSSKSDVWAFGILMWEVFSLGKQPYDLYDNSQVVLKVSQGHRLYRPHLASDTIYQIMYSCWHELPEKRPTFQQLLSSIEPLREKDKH

[3] = target: panel of 255 wild-type kinases (Homo sapiens, UniProt Q16620); details: read-out: %-inhibition at 1 µmol/L, TRKB
[4] = target: panel of 255 wild-type kinases (Homo sapiens, UniProt Q86Z02); details: read-out: %-inhibition at 1 µmol/L, HIPK1
[5] = target: panel of 255 wild-type kinases (Homo sapiens, UniProt O75676); details: read-out: %-inhibition, MSK2
[6] = target: panel of 255 wild-type kinases (Homo sapiens, UniProt P53355); details: read-out: %-inhibition at 1 µmol/L, DAPK1
[7] = target: T3, panel of 255 wild-type kinases (Homo sapiens, UniProt P30530); details: read-out: %-inhibition AXL
T3 sequence (P30530 26-894): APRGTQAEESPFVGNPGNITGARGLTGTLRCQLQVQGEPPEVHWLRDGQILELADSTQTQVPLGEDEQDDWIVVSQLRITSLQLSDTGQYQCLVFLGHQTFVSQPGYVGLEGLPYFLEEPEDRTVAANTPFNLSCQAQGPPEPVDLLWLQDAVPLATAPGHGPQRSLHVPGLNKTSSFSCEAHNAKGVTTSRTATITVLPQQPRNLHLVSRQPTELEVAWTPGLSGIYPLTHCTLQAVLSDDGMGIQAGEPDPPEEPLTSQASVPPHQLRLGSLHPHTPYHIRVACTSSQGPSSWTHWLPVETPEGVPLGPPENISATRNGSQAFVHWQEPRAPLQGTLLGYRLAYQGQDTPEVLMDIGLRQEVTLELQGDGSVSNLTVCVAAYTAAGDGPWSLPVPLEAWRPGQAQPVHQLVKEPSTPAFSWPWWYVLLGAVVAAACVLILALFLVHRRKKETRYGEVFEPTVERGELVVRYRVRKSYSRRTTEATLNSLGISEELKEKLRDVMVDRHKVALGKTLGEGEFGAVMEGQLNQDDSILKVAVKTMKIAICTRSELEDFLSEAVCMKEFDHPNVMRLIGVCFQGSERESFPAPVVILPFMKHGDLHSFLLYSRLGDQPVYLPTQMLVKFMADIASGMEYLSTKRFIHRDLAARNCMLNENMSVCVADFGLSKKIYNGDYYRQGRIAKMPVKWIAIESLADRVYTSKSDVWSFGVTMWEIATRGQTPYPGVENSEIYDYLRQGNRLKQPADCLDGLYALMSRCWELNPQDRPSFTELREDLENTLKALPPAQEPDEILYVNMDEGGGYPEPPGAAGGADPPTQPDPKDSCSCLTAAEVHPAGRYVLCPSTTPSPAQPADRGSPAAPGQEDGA

[8] = target: panel of 255 wild-type kinases (Homo sapiens, UniProt P78368); details: read-out: %-inhibition at 1 µmol/L, CK1γ2
[9] = kinase PRKX, 1 µmol/L single concentration
[10] = BMX kinase assay, 1 µmol/L single concentration
[11] = kinase TRKB, 1 µmol/L single concentration
[12] = kinase HIPK1, 1 µmol/L single concentration
[13] = MSK2, 1 µmol/L single concentration
[14] = kinase DAPK1, 1 µmol/L single concentration
[15] = AXL kinase assay, 1 µmol/L single concentration
[16] = kinase CK1γ2, 1 µmol/L single concentration

inhibition at 1 µM [2, 10] [%] | inhibition at 1 µM [3, 11] [%] | SMILES | inhibition at 1 µM [1, 9] [%] | inhibition at 1 µM [4, 12] [%] | inhibition at 1 µM [5, 13] [%] | inhibition at 1 µM [6, 14] [%] | inhibition at 1 µM [7, 15] [%] | inhibition at 1 µM [8, 16] [%] | inhibition at 1 µM [1] [%] | inhibition at 1 µM [2] [%] | inhibition at 1 µM [3] [%] | inhibition at 1 µM [4] [%] | inhibition at 1 µM [5] [%] | inhibition at 1 µM [6] [%] | inhibition at 1 µM [7] [%] | inhibition at 1 µM [8] [%]
2.24 | 4 | Cn1cnc2c(F)c(Nc3ccc(Br)cc3Cl)c(C(=O)NOCCO)cc21 [selumetinib] | -4.53 | 0.0183 | -0.42 | 2.59 | 26 | -1.66 |  |  |  |  |  |  |  | 
12 | 16 | COc1ccc(CN2C3CC2CN(c2ccc(-c4cc(OCC(C)(C)O)cn5ncc(C#N)c45)cn2)C3)cn1 [selpercatinib] | 55 | -0.334 | 5.66 | 26 | 93 | -2.46 |  |  |  |  |  |  |  | 
21 | 102 | O=C(Nc1cnn2ccc(N3CCC[C@@H]3c3cc(F)ccc3F)nc12)N1CC[C@H](O)C1 [larotrectinib] | 0.637 | -3.73 | -3.36 | -4 | 4.22 | -7 |  |  |  |  |  |  |  | 
 |  | CNC(=O)c1ccc(-c2cnc3ncc(Cc4ccc5ncccc5c4)n3n2)cc1F [capmatinib] |  |  |  |  |  |  | -5.65 | 4.33 | 16 | -2.58 | 1.25 | -2.82 | 34 | -10
1.46 | -0.401 | C[C@H](Nc1ncnc2nc[nH]c12)c1cc2cccc(Cl)c2c(=O)n1-c1ccccc1 [duvelisib] | 0.385 | 0.739 | -1.39 | -3.23 | -0.298 | 2.74 |  |  |  |  |  |  |  | 
82 | 94 | CO[C@]1(C(=O)N[C@@H](C)c2ccc(-n3cc(F)cn3)nc2)CC[C@H](c2nc(C)cc(Nc3cc(C)[nH]n3)n2)CC1 [pralsetinib] | -0.557 | 13 | 3.18 | 53 | 92 | -13 |  |  |  |  |  |  |  | 
6.62 | 6 | Cc1cc(Nc2ncnc3ccc(NC4=NC(C)(C)CO4)cc23)ccc1Oc1ccn2ncnc2c1 [tucatinib] | -1.54 | 11 | 1.24 | 1.6 | 22 | -4 |  |  |  |  |  |  |  | 
4 | 3.62 | Cn1cnc2c(F)c(Nc3ccc(Br)cc3F)c(C(=O)NOCCO)cc21 [binimetinib] | 2.57 | 0.44 | -3.65 | 1.69 | -1.7 | -0.416 |  |  |  |  |  |  |  | 
0.476 | -2.43 | Cc1nc(NC(=O)N2CCC[C@H]2C(N)=O)sc1-c1ccnc(C(C)(C)C(F)(F)F)c1 [alpelisib] | -4.49 | 9 | 0.0558 | -3 | -3.59 | -1.58 |  |  |  |  |  |  |  | 

SMILES | inhibition at 1 µM [2, 10] [%] | inhibition at 1 µM [3, 11] [%] | inhibition at 1 µM [1, 9] [%] | inhibition at 1 µM [4, 12] [%] | inhibition at 1 µM [5, 13] [%] | inhibition at 1 µM [6, 14] [%] | inhibition at 1 µM [7, 15] [%] | inhibition at 1 µM [8, 16] [%] | inhibition at 1 µM [1] [%] | inhibition at 1 µM [2] [%] | inhibition at 1 µM [3] [%] | inhibition at 1 µM [4] [%] | inhibition at 1 µM [5] [%] | inhibition at 1 µM [6] [%] | inhibition at 1 µM [7] [%] | inhibition at 1 µM [8] [%]
CCN1C(=O)N(c2c(F)c(OC)cc(OC)c2F)Cc2cnc3[nH]c(CN4CCOCC4)cc3c21 [pemigatinib] | 1.44 | 11 | -1.75 | 1.47 | -3.61 | -4.25 | 4.45 | -9 |  |  |  |  |  |  |  | 
FC(F)(F)c1ccc(CNc2ccc(Cc3c[nH]c4ncc(Cl)cc34)cn2)cn1 [pexidartinib] | -0.565 | 75 | 15 | 4.72 | 4.45 | -9 | 39 | -0.864 |  |  |  |  |  |  |  | 
C=CC(=O)N1CCC([C@@H]2CCNc3c(C(N)=O)c(-c4ccc(Oc5ccccc5)cc4)nn32)CC1 [zanubrutinib] |  | 6.58 | -1 | -3.58 | -4 | -2 | 4.56 | -7 |  |  |  |  |  |  |  | 
C[C@H]1Oc2cc(cnc2N)-c2c(nn(C)c2C#N)CN(C)C(=O)c2ccc(F)cc21 [lorlatinib] | 4 |  | 3.38 | -1.71 | -3.24 | 6.55 | 8 | 2.14 |  |  |  |  |  |  |  | 
CCN1CCN(c2ccc(Nc3cc(N(C)C(=O)Nc4c(Cl)c(OC)cc(OC)c4Cl)ncn3)cc2)CC1 [infigratinib] | 0.836 | 6 | -3.53 | -4.25 | -0.703 | -3 | 30 | -12 |  |  |  |  |  |  |  | 
COC(=O)N[C@@H](C)CNc1nccc(-c2cn(C(C)C)nc2-c2cc(Cl)cc(NS(C)(=O)=O)c2F)n1 [encorafenib] | 8 | 7.42 | 1.82 | 5.6 | -4 | -1 | 0.276 | 31 |  |  |  |  |  |  |  | 
CCc1nc(C(N)=O)c(Nc2ccc(N3CCC(N4CCN(C)CC4)CC3)c(OC)c2)nc1NC1CCOCC1 [gilteritinib] | 60 | 98 | 4 | 71 | 6 | 71 | 100 | 6.55 |  |  |  |  |  |  |  | 
CN1CCN(c2ccc(C(=O)Nc3n[nH]c4ccc(Cc5cc(F)cc(F)c5)cc34)c(NC3CCOCC3)c2)CC1 [entrectinib] | 99 |  | 2.19 | 11 | 2.7 | 16 | 96 | 0.857 |  |  |  |  |  |  |  | 
